Experimental findings from US20080118437A1, “Diagnosis and treatment O prostate cancer” (Regents of the University of Michigan, priority 2006, published 2008) are described below.

One experiment has as its system PC-3 cells. Briefly: Transwell migration assay toward hrCCL2. The experiment is classed as cell-based, human. The settings on record: hrCCL2 100 ng/mL, 24 hours. As to the method:
Increasing concentrations of CCL2 (1-100 ng/mL) or conditioned media was added to the lower chamber of a 24-well plate. Cells were harvested by EDTA release and resuspended in serum free media at 5×10^4 cells/ml. 2.5×10^4 cells were added to the upper chamber of the transwell insert and incubated for 24 hours at 37° C. and 5% CO^2 atmosphere. At the end of the incubation period, the cells were fixed with 4% formaldehyde in PBS for 5 minutes. Non-adherent cells were removed from inside the inserts with a cotton-tipped applicator. Cells which had migrated to the underside of the insert were stained with 0.5% crystal violet for 5 minutes and rinsed thoroughly with tap water. Inserts were allowed to dry and the cells were counted using an inverted microscope.

A further experiment deals with PC-3Luc cells. Put plainly: WST-1 proliferation assay with hrCCL2 and anti-CCL2 antibodies. The experiment is classed as cell-based, human. The settings on record: 72 hours, antibodies 30 μg/mL. On the procedure: Cells were seeded at a density of 1×10^5 cells/ml for PC-3Luc cells in a 96 well plate in RPMI+10% FBS (FCS is mentioned in previous section). Twenty-four hours after seeding, media was changed to either serum-free RPMI or RPMI+10% FBS. Cell growth was determined 72 hours later using the WST-1 assay (Pierce Biotech, Inc.) following the manufacturer's instructions.

The target of the next experiment is mouse CCL2/JE (Mus musculus, UniProt P10148). Put plainly: Cross-reactivity / neutralization. Type of experiment: binding.
Chain of mouse CCL2/JE (P10148 24-148): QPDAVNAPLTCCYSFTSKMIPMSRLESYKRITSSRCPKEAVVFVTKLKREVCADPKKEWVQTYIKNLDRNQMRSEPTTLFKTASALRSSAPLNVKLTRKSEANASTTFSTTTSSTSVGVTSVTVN
Another experiment relates to VCaP xenografts. Briefly: VCaP subcutaneous xenograft model of tumorigenesis. The experiment is classed as in vivo, male SCID mice. On the procedure: Xenograft tumors were established as previously described (Loberg et al., Urol Oncol 24 (2006) 161-168). Briefly, male SCID mice (5-6 weeks of age) were injected subcutaneously in the flank with 1×10^6 VCaP cells in 200 μL Matrigel (BD Biosciences, Inc.). Tumor volumes were calculated by caliper measurement performed weekly to monitor and track tumor growth (tumor volume=L×W×W×0.56). […] Mice were treated with 2 mg/Kg antibody twice weekly by intraperitoneal injection, beginning on Day 28 and for the remainder of the study.
Xenograft tumors were harvested and placed in fresh 10% formalin. Tumors were paraffin-embedded and 5 μm sections were cut and placed on glass slides. Hematoxylin and eosin stain was performed per the manufacturer's instructions (Sigma, Inc.). Identification of neovascularization was accomplished by labeling with an anti-CD31 antibody and macrophage infiltration was identified using an anti-CD68 antibody. Tissue sections were incubated for 10 minutes in citrate buffer, pH 6.0 and microwaved. Sections were incubated with anti-CD31 (DakoCytomation, Inc.; 1:50) or anti-CD68 (DaKoCytomation, Inc.; 1:1600) for 30 minutes and detected with LSAB+detection/DAB (3,3′-Diaminobenzidine; Sigma, Inc.) for 5 minutes. Slides were dipped in hematoxylin for 1 second as a counterstain.

“CNTO888: human IgG1κ antibody that neutralizes human CCL2”: the “hrCCL2-induced migration, mean ±SD” value in the experiment on PC-3 cells is recorded as 217±29. Further, the “cell viability (WST-1) as a measure of proliferation, mean ±SD” value came out at 112.52±10.2 in the experiment with PC-3Luc cells (CCL2 10 ng/mL) and 132.93±17.08 in the experiment on PC-3Luc cells (CCL2 100 ng/mL). For the same substance, the “cross-reaction with or neutralization of mouse CCL2/JE” value with mouse CCL2/JE was “do not cross-react with or neutralize”. The “attenuation of VCaP subcutaneous tumor growth” value with VCaP xenografts (2 mg/Kg twice weekly i.p.) is on record as 42.2%. The “reduction in tumor volume / tumor growth on Day 50 compared to control antibody” value with VCaP xenografts (2 mg/Kg twice weekly i.p. from Day 28 for 3 weeks) is 42.2%. The “macrophage infiltration, CD68+ cells, mean ±SD” value in the experiment with VCaP xenografts (VCaP xenograft, 2 mg/Kg twice weekly i.p.) is 9.00±7.94 cells per 100× objective field. Moreover, the “angiogenesis by CD31 staining of xenograft tumors” value in the experiment with VCaP xenografts (compared to isotype controls) is on record as “decreased the amount of angiogenesis”.
